Experiments:
[1] = system: L1210 murine leukemia cell line; test: Cell cultures and drug sensitivity assay (inhibition of cell growth, cell counting); format: cell-based; conditions: Mus musculus; L1210 cells, 48 h treatment; read-out: ID50 (nM) L1210
Method: (§1) (b) Cell Cultures and Drug Sensitivity Assay
(§2) L1210 and L1210/DX (Doxorubicin resistant) murine leukemia cell lines were grown in vitro as a stationary suspension culture in RPMI 1640 medium (GIBCO, Grand island, N.Y.) supplemented with 10% fetal calf serum (Flow, Irwine, UK), 2 mM L-glutamine (Gibco Europe, Glasgow, UK), 10 μM β-mercaptoethanol, 100 Units/ml penicillin and 100 μg/ml streptomycin.
(§3) Exponentially growing cells were seeded (1×10^5 cell/ml) in 12-well/plates (Costar, Cambridge, Mass.) and various concentrations of tested compounds were added immediately after seeding.
(§4) The plates were incubated at 37° C. in a humidified, 5% CO2 atmosphere for 48 hr.
(§5) Inhibition of cell growth was evaluated by counting surviving cells in a ZBI Coulter Counter (Hialeah, Fla.). The 50% inhibitory concentration (IC50) was calculated on the derived concentration-response curve. For each tested compound concentration, duplicate cultures were used.

Calf brain tubulin = test: Tubulin assembly test (repolymerization in presence of CaCl2, turbidity at 340 nm); format: biochemical; conditions: tubulin 1 mg/ml, 1 mM GTP, after 4 mM CaCl2
Method: (a) Tubulin Assembly Test
Calf brain tubulin was prepared by two cycles of assembly-disassembly (Shelanski M. L., Gaskin F. and Cantor C. R., Proc. Natl.Acad.Sci. U.S.A. 70, 765-768, 1973; and stored in liquid nitrogen in MAB (0.1M MES, 2.5 mM EGTA, 0.5 mM MgSO4, 0.1 mM EDTA, 0.1 mM DTT, pH 6.4).
All the experiments were carried out on protein stored for less than 4 weeks.
Before each experiment, tubulin was kept 30 min at 4° C. Assembly was monitored by the method of Gaskin et al. (Gaskin F., Cantor C. R. and Shelanski M. L., J.Molec.Biol. 89, 737-758, 1974).
The cuvette (1 cm path) containing tubulin (1 mg/ml) and 1 mM GTP was shifted to 37° C. and continuous turbidity measurements were made at 340 nm on a Perkin-Elmer 557 double wavelength, double beam spectrophotometer equipped with an automatic recorder and a thermostatically regulated sample chamber.
After 30 minutes, 4 mM CaCl2 was added and depolymerisation was measured for 10 minutes as decreased turbidity.
At regular intervals of 15 minutes scaled doses of the tested compounds were added and variations in the turbidity were monitored.
Data are expressed as percentage of repolymerization induced by the tested compounds.

[2] = system: L1210/DX (Doxorubicin resistant) murine leukemia cell line; test: Cell cultures and drug sensitivity assay (inhibition of cell growth, cell counting), Doxorubicin resistant cells; format: cell-based; conditions: for R.I: L1210/DX versus L1210, 48 h treatment; for IC50: Mus musculus, L1210/DX cells (Doxorubicin resistant), 48 h treatment, read-out: ID50 (nM) L1210/DX
Method: as §1, §2, §3, §4, §5

SMILES	IC50 [1]	tubulin assembly (%) (percentage of repolymerization induced by the tested compound) (Calf brain tubulin; dosage 4 μM)	tubulin assembly (%) (percentage of repolymerization induced by the tested compound) (Calf brain tubulin; dosage 40 μM)	R.I [2]	IC50 [2]	tubulin assembly (%) (percentage of repolymerization induced by the tested compound) (Calf brain tubulin; dosage 3.9 μM)	tubulin assembly (%) (percentage of repolymerization induced by the tested compound) (Calf brain tubulin; dosage 39 μM)
COC(=O)C1=CC2C(CC(OC(=O)C=Cc3cn(C)cn3)C3(C)C=CC1(O)O3)C(C)=CCC2C(C)C (single isomer, unassigned; (-)) [Sarcodictyin A]	539 ± 97.7 nM	70%	162%	1.4	754 ± 80.3 nM	–	–
COC(=O)C1=CC2C(CC(OC(=O)C=Cc3cn(C)cn3)C3(C)C=CC1(O)O3)C(C)=CC(O)C2C(C)C (single isomer, unassigned; (-)) [Sarcodictyin C]	408 ± 21.3 nM	–	–	14.2	5790 ± 183 nM	112%	173%

From patent US5869514A, “Terpenoidic derivatives useful as antitumor agents” (Pharmacia & Upjohn S.p.A., priority 1995, dated 1999)
